According to patent US8293682B2, “Growth regulators for gramineous weeds” (Rikengreen Co., Ltd., priority 2008, dated 2012):

What was measured:
[1] = system: annual bluegrass (Poa annua L.); conditions: cited from earlier work
[2] = system: annual bluegrass (Poa annua L.); assay: Test Example 2: count of ear emergence, poly-cup, applications at intervals / alternate application; assay type: in vivo
Description: At the initial stage of the ear emergence of annual bluegrass (Poa annua L.) grown in a poly-cup of 11 cm×11 cm, benzyladenine (Beanine for painting; made by Rikengreen; containing 1% benzyladenine) and/or ethephon (Ethrel 10 soluble concentrate; Nissan Chemical Industries; containing 10% ethephon) were diluted in a predetermined amount of water, and a spreader (Riken Sprayzer (registered trade mark); made by Rikengreen) was added so as to be 1/1,000-fold concentration; the respectively diluted solutions were applied by atomization at a dose and intervals as indicated in Table (scattered solution: 200 mL/m^2), and the number of emerged ears of annual bluegrass (Poa annua L.) in the cup was counted through time. The test was carried out serially. […] The symbol “●” in Table indicates the treatment with benzyladenine, “◯” the treatment with ethephon, and “−” untreated. Dose means the amount at a single application.

Structure (SMILES) | growth of annual bluegrass growing among Kentucky bluegrass ([1]; Non-patent document 3, dose of 3.2 kg/hectare) | ear emergence of annual bluegrass growing among bent grass ([1]; Non-patent document 4, 3.8-7.6 kg/hectare) | Count of ear emergence ([2]; Day 25, Ethephon 40 mg a.i./m^2 applied Day 10) | Count of ear emergence ([2]; Day 33, Ethephon 40 mg a.i./m^2 applied Day 10) | Count of ear emergence ([2]; Day 25, Benzyladenine 0.67 mg a.i./m^2 applied Day 0, 6, 12) | Count of ear emergence ([2]; Day 25, Benzyladenine 0.67 mg a.i./m^2 applied Day 6, 12) | Count of ear emergence ([2]; Day 25, Benzyladenine 0.67 mg a.i./m^2 applied Day 12) | Count of ear emergence ([2]; Day 25, Benzyladenine 2 mg a.i./m^2 applied Day 0, 6, 12) | Count of ear emergence ([2]; Day 25, Benzyladenine 2 mg a.i./m^2 applied Day 6, 12) | Count of ear emergence ([2]; Day 25, Benzyladenine 2 mg a.i./m^2 applied Day 12) | Count of ear emergence ([2]; Day 33, Benzyladenine 0.67 mg a.i./m^2 applied Day 0, 6, 12) | Count of ear emergence ([2]; Day 33, Benzyladenine 0.67 mg a.i./m^2 applied Day 6, 12) | Count of ear emergence ([2]; Day 33, Benzyladenine 0.67 mg a.i./m^2 applied Day 12) | Count of ear emergence ([2]; Day 33, Benzyladenine 2 mg a.i./m^2 applied Day 0, 6, 12) | Count of ear emergence ([2]; Day 33, Benzyladenine 2 mg a.i./m^2 applied Day 6, 12) | Count of ear emergence ([2]; Day 33, Benzyladenine 2 mg a.i./m^2 applied Day 12)
O=P(O)(O)CCCl [Ethephon, 2-chloroethylphosphonic acid] | slowed growth | inhibits the ear emergence | 35 | 27 |  |  |  |  |  |  |  |  |  |  |  | 
c1ccc(CNc2ncnc3nc[nH]c23)cc1 [Benzyladenine, 6-benzylaminopurine] |  |  |  |  | 37 | 34 | 37 | 20 | 14 | 22 | 50 | 24 | 28 | 26 | 15 | 23
